From patent publication US20110028566A1, “COMPOSITIONS AND PRODUCTS CONTAINING CYCLOALIPHATIC DIOL ANTIMICROBIAL AGENTS AND METHODS OF USING THE COMPOSITIONS AND PRODUCTS” (EASTMAN CHEMICAL COMPANY, priority 2009, published 2011)
Values joined by “and” are separate entries in the source; they are usually repeats but may differ in a detail not shown here. Identical values can stand only once.

Tests used:
[1] = tested on: Aspergillus niger ATCC 16404; test: MIC determination and synergy testing (Kull synergy index), microplate; type: cell-based
Method: The test cultures are listed in Table 7 along with the incubation temperatures used for growth and minimum inhibitory concentration (MIC) testing. […] C. albicans was cultured in Sabouraud dextrose broth (SDB) for approximately 44-52 hours for preparation of inoculum. A. niger was cultured on Sabouraud dextrose agar (SDA) for 3-4 days until there was confluent growth and visible spore formation. Spores were harvested from the SDA plates by flooding the surface of the plate with 5-10 mL of phosphate-buffered saline (PBS) and gently spreading the liquid across the surface of the plate with a sterile T-shaped plastic spreader (Copan Diagnostics) until there was a well-mixed suspension of spores. The resulting spore suspension was collected using a serological pipette and stored at 2-8° C. until use.
Inoculum concentration was determined by dilution plating of the cultures or spore suspension. A serial dilution in PBS was made to 10^−8 for the bacterial cultures or 10^−5 for the fungal cultures. Fifty or 100 μL of the final dilution was spread on two Trypticase-soy agar (TSA) plates for bacteria or two SDA plates for fungi. After 24 to 48 hours plates were counted and the concentrations used in each experiment were calculated.
The A. niger spore suspensions were concentrated to a level of 1-2×10^8 spores/mL by centrifugation and resuspension in a portion of the resulting supernatant.
The antimicrobial agents tested for synergy along with the respective diluents and working stock solution concentrations are shown below. For determination of MIC ranges, individual antimicrobial agent stock solutions were added to sterile medium to yield the highest level test concentrations, and then serially diluted in the medium to prepare the range of test concentrations. For synergy testing individual test concentrations were prepared in sterile medium, and then blended to form the desired combinations.
MICs were determined using a high-throughput microplate method. Individual antimicrobial agents were added to TSB (pH 7.3) for bacterial testing or SDB (pH 5.6) for fungal testing at the highest concentration to be tested. A serial dilution series was prepared at a dilution ratio of 1:1.3333 such that a one log range was covered in nine dilutions. Two-hundred microliters of the diluted antimicrobial agents were dispensed into four wells each of a sterile, 96-well, flat-bottom microplate (Nalge Nunc International). Four additional wells of the highest concentration were dispensed to serve as uninoculated high-level controls. Eight additional wells containing only broth medium were also prepared, four to serve as negative controls and four as positive controls. Three wells of each antimicrobial agent dilution were inoculated with one of the test strains in Table 7. The final well of each antimicrobial agent dilution was left uninoculated to serve as a control (and means of compensating) for any absorbance/turbidity due to the test compounds.
Microplates were inoculated using the cultures or spore suspensions prepared as described above. The S. aureus cultures were used undiluted, while the E. coli and P. aeruginosa cultures were used either undiluted or after a 1:2 dilution in sterile TSB. The C. albicans cultures were used either undiluted or following a 2-fold concentration by centrifugation. One of two means of inoculation was used to deliver a final concentration of approximately 10^5 colony-forming units (CFU)/mL of C. albicans, 10^5 spores/mL of A. niger, or 10^6 CFU/mL of bacteria. The primary method used a stainless steel pin replicator (Nalge Nunc International) mounted on a hand-operated bench-top press (Schmidt Technology Corporation) fitted with a custom-built microplate holder to dispense one microliter of each inoculum from a “master” plate containing 50-100 μL of culture into the wells of the test plate. The pin replicator was sterilized before and between inoculations by immersing in ethanol and flaming. […]

Aspergillus niger = test: Microbial challenge testing in BPW; type: cell-based; settings: for Grade code, A. niger, 3 Day / Grade code, A. niger, 13 Day / Grade code, A. niger, 30 Day: BPW, w/v % in label, average of replicates
Method: The microorganisms used in challenge tests are given in Table 3, designated as either ATCC (American Type Culture Collection) or wild type. These wild type organisms were problematic organisms previously isolated from chemical products. In the description for each organism, the bacteria are indicated as either GN (Gram negative) or GP (Gram positive).
All of the microorganisms were grown in Tryptose Soy Broth (TSB), DIFCO™ available from Becton, Dickinson and Company, containing 1% dextrose. Aspergillus niger and Candida albicans were incubated at 22° C.±2° C. for at least 96 hours. All bacteria were incubated at 35° C.±2° C. in a humidified incubator for at least 96 hours.
Aspergillus niger and Candida albicans were also grown on Sabouraud dextrose agar (SDA) at 22° C.±2° C. for 7 to 14 days or until full sporulation was achieved.
The following procedure was followed to determine the amount of each challenge material (inoculum broth) required to produce a 10^8 cfu/mL challenge, which is equivalent to a final test-sample microbial concentration of 10^5 to 10^6 cfu (colony-forming units)/mL.
Using a sterile serological pipette, 1 mL of the growth from each TSB culture was transferred into tubes containing 9 mL phosphate buffer (pH 7.2) and mixed thoroughly. This process was repeated to make serial 1:10 dilutions. Then 0.1 mL of each sample and dilution was inoculated onto agar plates to produce the equivalent of a further 1:10 dilution. C. albicans and A. niger were inoculated onto SDA and bacteria were inoculated onto Plate Count Agar (PCA), DIFCO™ available from Becton, Dickinson and Company. The 0.1 mL aliquots were evenly distributed on the plates using the spread-plate technique. The spread-plate technique is performed by spreading the aliquot over the entire plate surface using a sterile spreading rod while rotating the plate with a rotary auto-plater. After the inoculum was absorbed completely, each plate was inverted and incubated (fungi at 22° C.±2° C. and bacteria at 35° C.±2° C.).
After incubation for at least 48 hours, colonies that had developed on the agar plates were counted and recorded with the corresponding dilution. If counting had to be delayed temporarily, plates were refrigerated, preferably no more than 24 hours, until they could be counted. The number of cfu/mL was determined by multiplying the count by the dilution factor for that particular plate.
Turbidity in Nepholemetric Turbidity Units (NTU) was measured for each serial dilution using the HF-Micro 100 Model Turbidimeter. For each microorganism, the plate counts were compared to the turbidity readings.
Aspergillus niger cultures were harvested and spores dislodged from the SDA on which they were grown by rubbing the growth gently with a sterile inoculating loop. The spores were then mixed into the broth culture that had been incubated with a sterile magnetic stir bar to reduce pellicle formation. The spore-culture mixture was filtered repeatedly through sterile, non-absorbent cotton and harvested repeatedly, adjusting vegetative cells and spores to a level of 1.0×10^8. A hemocytometer was used to verify the final challenge concentration.
Control substrates (“broth alone”) were prepared for each microorganism separately in triplicate by adding 13.5 mL of BPW (pH 7.0) containing 1% (w/v) dextrose to each 20-mL glass tube; then adding 1.5 mL challenge material to produce a final concentration at time zero of 10^5 to 10^6 cfu/mL and a total volume of 15 mL.
Test sample substrates were prepared containing each test material (1,4-CHDM, etc) or combination of test materials at the concentrations shown in Tables 5 and 6.

[2] = A. niger, plate 154C, day 3, MP and CHDM

OCC1CCC(CO)CC1 (centres unmarked) [1,4-CHDM, 1,4-cyclohexanedimethanol]
QA, MIC of CHDM alone ([1]; A. niger, day 2 of incubation, plates 123C, 217C (CG series)): 4.50 weight percent and 3.11 weight percent
QA, MIC of CHDM alone ([1]; A. niger, day 3 of incubation, plate 123C (CG series)): 3.11 weight percent
QA/a: concentration of CHDM (MIC alone, or in the combination at an inhibitory concentration) [1, 2]: 2.03 weight percent
SI (synergy index) [1, 2]: 1.00
QA/a ([1]; CHDM alone (QA) or in combination with DMDM hydantoin (a), plate 196C, day 3): 2.78
QA/a ([1]; CHDM alone (QA) or in combination with IPBC (a), plate 259C, day 2): 5.00
QA/a ([1]; CHDM alone (QA) or in combination with IPBC (a), plate 260C, day 3): 6.50
QA/a ([1]; CHDM: MIC alone (QA) or conc. in combination with BA:DHA (a), plate 195C, day 2): 4.93
QA/a ([1]; CHDM: MIC alone (QA) or conc. in combination with BA:DHA (a), plate 195C, day 3): 4.93
QA/a ([1]; CHDM: MIC alone (QA) or conc. in combination with BA:DHA (a), plate 215C, day 2): 4.50
QA/a ([1]; CHDM: MIC alone (QA) or conc. in combination with BA:DHA (a), plate 215C, day 3): 4.50
QA/a ([1]; CHDM: MIC alone (QA) or conc. in combination with CP (a), plate 194C, day 2): 3.70
QA/a ([1]; CHDM: MIC alone (QA) or conc. in combination with CP (a), plate 194C, day 3): 2.78
QA/a ([1]; CHDM: MIC alone (QA) or conc. in combination with MIT (a), plate 193C, day 2): 4.93
QA/a ([1]; CHDM: MIC alone (QA) or conc. in combination with MIT (a), plate 193C, day 3): 2.78
QA/a ([1]; CHDM: MIC alone (QA) or conc. in combination with MIT (a), plate 214C, day 2): 4.50
QA/a ([1]; CHDM: MIC alone (QA) or conc. in combination with MIT (a), plate 214C, day 3): 6.00
Grade code A. niger (Aspergillus niger; 0.5%, 3 days incubation): 4
Grade code A. niger (Aspergillus niger; 0.5%, 13 days incubation): 4
Grade code A. niger (Aspergillus niger; 0.5%, 30 days incubation): 4
Grade code A. niger (Aspergillus niger; 1.25%, 3 days incubation): 4
Grade code A. niger (Aspergillus niger; 1.25%, 13 days incubation): 4
Grade code A. niger (Aspergillus niger; 1.25%, 30 days incubation): 4
Grade code A. niger (Aspergillus niger; 2.5%, 3 days incubation): 2 (Countable (11 to 100 colonies))
Grade code A. niger (Aspergillus niger; 2.5%, 13 days incubation): 1 (Countable (1 to 10 colonies))
Grade code A. niger (Aspergillus niger; 2.5%, 30 days incubation): 2.3
Grade code, A. niger, 3 Day (Aspergillus niger; 3 days incubation, listed as 0.5% AB): 4
Grade code, A. niger, 3 Day (Aspergillus niger; 3 days incubation, listed as 1.25% AB): 4
Grade code, A. niger, 3 Day (Aspergillus niger; 3 days incubation, listed as 2.5% AB): 2 (Countable (11 to 100 colonies))
Grade code, A. niger, 13 Day (Aspergillus niger; 13 days incubation, listed as 0.5% AB): 4
Grade code, A. niger, 13 Day (Aspergillus niger; 13 days incubation, listed as 1.25% AB): 4
Grade code, A. niger, 13 Day (Aspergillus niger; 13 days incubation, listed as 2.5% AB): 1 (Countable (1 to 10 colonies))
Grade code, A. niger, 30 Day (Aspergillus niger; 30 days incubation, listed as 0.5% AB): 4
Grade code, A. niger, 30 Day (Aspergillus niger; 30 days incubation, listed as 1.25% AB): 4
Grade code, A. niger, 30 Day (Aspergillus niger; 30 days incubation, listed as 2.5% AB): 2.3

CCCCCCC(O)CO (centres unmarked) [CG, 1,2-octanediol]
Synergism of antimicrobial agent in combination with 1,4-CHDM for A. niger (in words; in the 12th table the cell names the organism and table number) ([1]; Kull synergy index, synergistic when at least two results SI<1): A. niger (14)
Grade code, A. niger, 3 Day (Aspergillus niger; 3 days incubation): 4
Grade code, A. niger, 13 Day (Aspergillus niger; 13 days incubation, listed as 0.25% CG): 4
Grade code, A. niger, 13 Day (Aspergillus niger; 13 days incubation, listed as 0.5% CG): 2 (Countable (11 to 100 colonies))
Grade code, A. niger, 30 Day (Aspergillus niger; 30 days incubation, listed as 0.25% CG): 4
Grade code, A. niger, 30 Day (Aspergillus niger; 30 days incubation, listed as 0.5% CG): 1 (Countable (1 to 10 colonies))

O=C([O-])CN(CCN(CC(=O)O)CC(=O)O)CC(=O)[O-].[Na+].[Na+] [EDTA, ethylenediaminetetraacetic acid disodium salt]
Grade code, A. niger, 3 Day (Aspergillus niger; 3 days incubation): 4
Grade code, A. niger, 13 Day (Aspergillus niger; 13 days incubation): 4
Grade code, A. niger, 30 Day (Aspergillus niger; 30 days incubation): 4

CC1(C)C(O)C(C)(C)C1O (centres unmarked) [TMCD, 2,2,4,4-tetramethyl-1,3-cyclobutanediol]
Grade code A. niger (Aspergillus niger; 0.5%, 3 days incubation): 5
Grade code A. niger (Aspergillus niger; 0.5%, 13 days incubation): 5
Grade code A. niger (Aspergillus niger; 0.5%, 30 days incubation): 5
Grade code A. niger (Aspergillus niger; 1.25%, 3 days incubation): 4
Grade code A. niger (Aspergillus niger; 1.25%, 13 days incubation): 4
Grade code A. niger (Aspergillus niger; 1.25%, 30 days incubation): 4
Grade code A. niger (Aspergillus niger; 2.5%, 3 days incubation): 3 (Individual colonies not countable; >75% of plate covered with growth)
Grade code A. niger (Aspergillus niger; 2.5%, 13 days incubation): 2 (Countable (11 to 100 colonies))
Grade code A. niger (Aspergillus niger; 2.5%, 30 days incubation): 3 (Individual colonies not countable; >75% of plate covered with growth)
